Patent publication US20250170248A1, “SMARCA DEGRADERS AND USES THEREOF” (Kymera Therapeutics, Inc., priority 2021, published 2025)

Key:
Format in all cases: cell-based
[1] = target: T1, SMARCA2 (Homo sapiens, UniProt P51531); assay: MSD SMARCA2 degradation in A549 cell line; conditions: 24 h; for Dmax: A549, A549 cells; for DC50: A549 cells, read-out: SMARCA2 MSD A549 degradation 24 h: Average external-Abs DC50
In short: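 SMARCA2 protein remaining after 24 h exposure of A549 cells (top concentration 1000 nM, 3-fold dilutions) was measured by MSD electrochemiluminescence immunoassay of cell lysates. Results are given as binned DC50 and maximal degradation (Dmax) codes.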

[2] = target: T2, SMARCA4 (Homo sapiens, UniProt P51532); assay: SMARCA4 Western blot degradation in MV4-11 cells; conditions: 24 h; for Dmax: MV4-11, MV4-11 cells, read-out: SMARCA4 MSD MV411 degradation 24 h: average Dmax %; for DC50: MV4-11 cells, read-out: SMARCA4 MSD MV411 degradation 24 h: Mean external-Abs DC50
T2 construct: SMARCA2/SMARCA4 protein degradation selectivity in MV4-11 cells; endogenous in cells; host or cells: MV4-11
T2 sequence (P51532 whole entry): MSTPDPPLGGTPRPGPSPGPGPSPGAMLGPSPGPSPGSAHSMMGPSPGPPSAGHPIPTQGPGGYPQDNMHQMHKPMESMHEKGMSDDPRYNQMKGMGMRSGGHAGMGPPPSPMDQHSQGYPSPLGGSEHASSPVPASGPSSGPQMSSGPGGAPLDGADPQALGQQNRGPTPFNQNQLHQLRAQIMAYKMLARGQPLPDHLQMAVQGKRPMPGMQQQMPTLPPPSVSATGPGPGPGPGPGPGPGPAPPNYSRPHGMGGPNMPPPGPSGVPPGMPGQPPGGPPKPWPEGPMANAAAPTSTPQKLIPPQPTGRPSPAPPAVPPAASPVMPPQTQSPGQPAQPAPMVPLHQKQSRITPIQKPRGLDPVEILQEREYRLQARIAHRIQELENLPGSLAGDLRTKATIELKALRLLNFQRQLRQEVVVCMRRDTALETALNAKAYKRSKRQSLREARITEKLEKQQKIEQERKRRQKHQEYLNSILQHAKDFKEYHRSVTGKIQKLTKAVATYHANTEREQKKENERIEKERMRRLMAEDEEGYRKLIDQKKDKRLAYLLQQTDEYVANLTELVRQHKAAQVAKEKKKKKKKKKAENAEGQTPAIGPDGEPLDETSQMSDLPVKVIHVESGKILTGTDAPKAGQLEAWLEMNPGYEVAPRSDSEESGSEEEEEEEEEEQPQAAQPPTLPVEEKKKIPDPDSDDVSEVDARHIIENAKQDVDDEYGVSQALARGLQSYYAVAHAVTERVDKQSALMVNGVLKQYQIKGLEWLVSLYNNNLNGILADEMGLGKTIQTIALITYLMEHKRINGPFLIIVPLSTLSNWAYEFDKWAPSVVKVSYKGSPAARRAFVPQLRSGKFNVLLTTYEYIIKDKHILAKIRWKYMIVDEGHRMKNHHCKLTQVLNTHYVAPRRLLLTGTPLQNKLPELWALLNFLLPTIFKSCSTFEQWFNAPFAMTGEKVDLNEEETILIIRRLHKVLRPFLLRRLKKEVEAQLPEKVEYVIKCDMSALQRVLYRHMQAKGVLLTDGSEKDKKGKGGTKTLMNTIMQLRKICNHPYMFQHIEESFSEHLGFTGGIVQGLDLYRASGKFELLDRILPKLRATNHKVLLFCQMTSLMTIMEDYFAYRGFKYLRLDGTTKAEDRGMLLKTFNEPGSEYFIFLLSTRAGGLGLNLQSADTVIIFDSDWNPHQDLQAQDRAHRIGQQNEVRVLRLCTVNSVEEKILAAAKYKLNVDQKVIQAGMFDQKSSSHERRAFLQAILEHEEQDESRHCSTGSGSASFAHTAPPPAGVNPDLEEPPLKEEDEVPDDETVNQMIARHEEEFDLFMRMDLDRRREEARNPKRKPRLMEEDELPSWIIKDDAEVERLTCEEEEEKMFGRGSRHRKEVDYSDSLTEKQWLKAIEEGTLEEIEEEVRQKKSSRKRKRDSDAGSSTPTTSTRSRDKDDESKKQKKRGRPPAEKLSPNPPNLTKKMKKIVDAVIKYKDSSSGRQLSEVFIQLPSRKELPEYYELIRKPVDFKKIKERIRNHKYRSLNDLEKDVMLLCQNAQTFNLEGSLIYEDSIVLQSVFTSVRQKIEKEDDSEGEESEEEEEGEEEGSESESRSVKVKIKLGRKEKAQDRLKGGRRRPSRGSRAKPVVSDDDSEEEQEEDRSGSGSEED
In short: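 Protein levels quantified by LI-COR Western blot (beta-actin loading control) in RIPA lysates of MV4-11 cells after 24 h compound exposure. Degradation reported as DC50, Dmax % at 24 h and SMARCA2 vs SMARCA4 selectivity, each binned into letter codes.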

[3] = target: T1, SMARCA2; assay: SMARCA2 Western blot degradation in MV4-11 cells; parameters: SMARCA2/SMARCA4 protein degradation selectivity in MV4-11 cells; endogenous in cells; host or cells: MV4-11; conditions: for Dmax: MV4-11, MV4-11 cells, read-out: SMARCA2 MSD MV411 degradation 24 h: average Dmax %; for Dmax / DC50: 24 h; for DC50 / Selectivity in MV411: MV4-11 cells; for DC50: read-out: SMARCA2 MSD MV411 degradation 24 h: Mean external-Abs DC50; for Selectivity in MV411: SMARCA2/4 selectivity

T1 sequence (P51531 whole entry): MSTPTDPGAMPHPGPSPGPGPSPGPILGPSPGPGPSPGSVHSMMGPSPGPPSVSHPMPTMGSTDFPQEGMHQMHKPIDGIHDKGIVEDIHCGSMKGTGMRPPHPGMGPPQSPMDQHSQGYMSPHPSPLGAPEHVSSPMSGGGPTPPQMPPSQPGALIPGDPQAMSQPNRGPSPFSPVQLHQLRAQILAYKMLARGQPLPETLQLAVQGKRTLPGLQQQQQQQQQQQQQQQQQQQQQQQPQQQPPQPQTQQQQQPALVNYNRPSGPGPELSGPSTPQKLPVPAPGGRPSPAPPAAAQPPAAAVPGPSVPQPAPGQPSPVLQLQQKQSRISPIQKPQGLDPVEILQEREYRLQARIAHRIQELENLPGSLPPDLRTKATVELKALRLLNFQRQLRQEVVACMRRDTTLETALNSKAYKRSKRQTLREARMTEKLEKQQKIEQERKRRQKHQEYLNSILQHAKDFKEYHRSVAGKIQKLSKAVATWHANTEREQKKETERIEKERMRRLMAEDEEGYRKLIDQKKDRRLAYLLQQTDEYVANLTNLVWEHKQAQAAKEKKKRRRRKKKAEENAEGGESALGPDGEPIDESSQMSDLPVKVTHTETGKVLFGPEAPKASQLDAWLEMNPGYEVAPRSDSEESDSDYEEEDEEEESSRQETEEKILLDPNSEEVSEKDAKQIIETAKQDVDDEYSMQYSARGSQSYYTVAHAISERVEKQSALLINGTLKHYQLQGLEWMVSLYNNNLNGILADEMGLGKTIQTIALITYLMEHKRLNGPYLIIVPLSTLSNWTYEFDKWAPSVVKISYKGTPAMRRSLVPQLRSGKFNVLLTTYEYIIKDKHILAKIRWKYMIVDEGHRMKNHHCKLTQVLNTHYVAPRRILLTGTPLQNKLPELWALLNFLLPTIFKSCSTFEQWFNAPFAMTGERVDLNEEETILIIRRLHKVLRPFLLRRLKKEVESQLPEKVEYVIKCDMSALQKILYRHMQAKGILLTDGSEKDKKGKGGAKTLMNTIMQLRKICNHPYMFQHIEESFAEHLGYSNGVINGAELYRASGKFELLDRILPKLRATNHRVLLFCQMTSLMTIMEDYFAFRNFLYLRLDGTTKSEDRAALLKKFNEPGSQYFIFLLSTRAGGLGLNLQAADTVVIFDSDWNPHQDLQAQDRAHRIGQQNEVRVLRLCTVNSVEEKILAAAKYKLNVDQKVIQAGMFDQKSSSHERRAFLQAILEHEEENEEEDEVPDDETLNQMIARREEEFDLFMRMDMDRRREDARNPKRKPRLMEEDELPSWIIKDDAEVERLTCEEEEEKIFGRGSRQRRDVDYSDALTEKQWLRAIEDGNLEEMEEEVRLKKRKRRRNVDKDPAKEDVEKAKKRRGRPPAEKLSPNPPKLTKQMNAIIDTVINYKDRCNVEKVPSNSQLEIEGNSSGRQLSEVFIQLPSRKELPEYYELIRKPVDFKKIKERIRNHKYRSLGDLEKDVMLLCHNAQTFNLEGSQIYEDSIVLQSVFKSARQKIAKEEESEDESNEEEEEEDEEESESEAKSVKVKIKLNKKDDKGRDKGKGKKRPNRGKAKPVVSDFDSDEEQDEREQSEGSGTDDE

Row | Compound | Dmax [1] | DC50 [1] | Dmax [2] | DC50 [2] | Dmax [3] | DC50 [3] | Selectivity in MV411 [3]
1 | C#Cc1cc(Cl)c(CNC(=O)[C@@H]2C[C@@H](O)CN2C(=O)[C@@H](NC(=O)[C@H]2CC3(C2)C[C@H](N2CCC(N4CCC(N5CCN6c7cc(-c8ccccc8O)nnc7NC[C@H]6C5)CC4)CC2)C3)C(C)(C)C)c(OC)c1 (stereo partly shown) [I-329] |  | > 100 nM |  | > 100 nM |  |  | D (D (<10 fold))
2 | C#Cc1cnc(CNC(=O)[C@@H]2C[C@@H](O)CN2C(=O)[C@@H](NC(=O)[C@H]2CC3(C2)C[C@H](N2CCC(N4CCC(N5CCN6c7cc(-c8ccccc8O)nnc7NC[C@H]6C5)CC4)CC2)C3)C(C)(C)C)c(OC)c1 (stereo partly shown) [I-331] |  | > 100 nM |  | > 100 nM |  |  | C (C (10-100 fold))
3 | C#Cc1ccc(CNC(=O)[C@@H]2C[C@@H](O)CN2C(=O)[C@@H](NC(=O)N2CC3(CC(N4CCC(c5cnc(N6CCc7[nH]c8nnc(-c9ccccc9O)cc8c7[C@@H]6C)s5)CC4)C3)C2)C(C)(C)C)cc1 [I-335] | 70 to 90% | > 100 nM | 70 to 90% | > 100 nM | 50 to 70% | 10 to 100 nM | D (D (<10 fold))
4 | C#Cc1ccc(CNC(=O)[C@@H]2C[C@@H](O)CN2C(=O)[C@H](NC(=O)N2CC3(CC(N4CCC(c5cnc(N6CCc7[nH]c8nnc(-c9ccccc9O)cc8c7[C@H]6C)nc5)CC4)C3)C2)C(C)(C)CCN2CCNCC2)cc1 [I-339] | < 50% | > 100 nM | < 50% | > 100 nM | < 50% | > 100 nM | C (C (10-100 fold))
5 | C#Cc1ccc(CNC(=O)[C@@H]2C[C@@H](O)CN2C(=O)[C@@H](NC(=O)N2CC3(CC(N4CCC(c5cnc(N6CCc7[nH]c8nnc(-c9ccccc9O)cc8c7[C@H]6C)nc5)CC4)C3)C2)C(C)(C)CCN2CCNCC2)cc1 [I-340] | 50 to 70% | > 100 nM | < 50% | > 100 nM | < 50% | > 100 nM | C (C (10-100 fold))
6 | C#Cc1ccc(CNC(=O)[C@@H]2C[C@@H](O)CN2C(=O)[C@H](NC(=O)N2CC3(CC(N4CCC(c5cnc(N6CCc7[nH]c8nnc(-c9ccccc9O)cc8c7[C@H]6C)nc5)CC4)C3)C2)C(C)(C)CCN2CCN[C@@H](C(=O)O)C2)cc1 [I-341] | < 50% | > 100 nM | < 50% | > 100 nM | < 50% | > 100 nM | C (C (10-100 fold))
7 | C#Cc1ccc(CNC(=O)[C@@H]2C[C@@H](O)CN2C(=O)[C@@H](NC(=O)N2CC3(CC(N4CCC(c5cnc(N6CCc7[nH]c8nnc(-c9ccccc9O)cc8c7[C@H]6C)nc5)CC4)C3)C2)C(C)(C)CCN2CCN[C@@H](C(=O)O)C2)cc1 [I-342] | < 50% | > 100 nM | < 50% | > 100 nM | < 50% | > 100 nM | C (C (10-100 fold))
8 | C#Cc1ccc(CNC(=O)[C@@H]2C[C@@H](O)CN2C(=O)[C@H](NC(=O)N2CC3(CC(N4CCC(c5cnc(N6CCc7[nH]c8nnc(-c9ccccc9O)cc8c7[C@H]6C)nc5)CC4)C3)C2)C(C)(C)CCN2CCN[C@H](C(=O)O)C2)cc1 [I-343] | < 50% | > 100 nM | < 50% | > 100 nM | < 50% | > 100 nM | C (C (10-100 fold))
9 | C#Cc1ccc(CNC(=O)[C@@H]2C[C@@H](O)CN2C(=O)[C@@H](NC(=O)N2CC3(CC(N4CCC(c5cnc(N6CCc7[nH]c8nnc(-c9ccccc9O)cc8c7[C@H]6C)nc5)CC4)C3)C2)C(C)(C)CCN2CCN[C@H](C(=O)O)C2)cc1 [I-344] | < 50% | > 100 nM | < 50% | > 100 nM | < 50% | > 100 nM | C (C (10-100 fold))

The remaining lines, values ahead:

Row | Dmax [1] | DC50 [1] | Dmax [2] | DC50 [2] | Dmax [3] | DC50 [3] | Selectivity in MV411 [3] | Compound
10 | > 90% | 10 to 50 nM | 70 to 90% | > 100 nM | 70 to 90% | 1 to 10 nM | C (C (10-100 fold)) | C#Cc1ccc(CNC(=O)[C@@H]2C[C@@H](O)CN2C(=O)[C@@H](NC(=O)N2CC3(CC(N4CCC(c5cnc(N6CCc7[nH]c8nnc(-c9ccccc9O)cc8c7[C@H]6CO)nc5)CC4)C3)C2)C(C)(C)C)c(Cl)c1 [I-318]
11 | > 90% | 10 to 50 nM | 50 to 70% | > 100 nM | 70 to 90% | 1 to 10 nM | B (B (>100-500 fold)) | C#Cc1ccc(CNC(=O)[C@@H]2C[C@@H](O)CN2C(=O)[C@@H](NC(=O)N2CC3(CC(N4CCC(c5cnc(N6CCc7[nH]c8nnc(-c9ccccc9O)cc8c7[C@H]6C)nc5)CC4)C3)C2)C(C)(C)C)cc1OC [I-319]
12 | > 90% | < 10 nM | > 90% | 10 to 100 nM | > 90% | 1 to 10 nM | C (C (10-100 fold)) | C#Cc1ccc(CNC(=O)[C@@H]2C[C@@H](O)CN2C(=O)[C@@H](NC(=O)C2CC3(C2)CN(c2cnc(N4CCC(N5CCN6c7cc(-c8ccccc8O)nnc7NC[C@H]6C5)CC4)cn2)C3)C(C)(C)C)cc1 [I-320]
13 | > 90% | 10 to 50 nM | < 50% | > 100 nM | 70 to 90% | 1 to 10 nM | A (A (>500 fold)) | C#Cc1ccc([C@H](C)NC(=O)[C@@H]2C[C@@H](O)CN2C(=O)[C@@H](NC(=O)N2CC3(CC(N4CCC(c5cnc(N6CCc7[nH]c8nnc(-c9ccccc9O)cc8c7[C@H]6CO)nc5)CC4)C3)C2)C(C)(C)C)cc1 [I-321]
14 | > 90% | 10 to 50 nM | 50 to 70% | > 100 nM | 70 to 90% | 1 to 10 nM | C (C (10-100 fold)) | C#Cc1ccc(CNC(=O)[C@@H]2C[C@@H](O)CN2C(=O)[C@@H](NC(=O)N2CC3(CC(N4CCC(c5cnc(N6CCc7[nH]c8nnc(-c9ccccc9O)cc8c7[C@H]6C)s5)CC4)C3)C2)C(C)(C)C)cc1 [I-323]
15 | < 50% | > 100 nM | < 50% | > 100 nM | < 50% | > 100 nM | C (C (10-100 fold)) | C#Cc1ccc([C@H](C)NC(=O)[C@@H]2C[C@@H](O)CN2C(=O)C(c2cc(N3CCC(CN4CCC(N5CCC(N6CCN7c8cc(-c9ccccc9O)nnc8NC[C@H]7C6)CC5)CC4)CC3)no2)C(C)C)c(Cl)c1 (stereo partly shown) [I-324]
16 | > 90% | 10 to 50 nM | > 90% | 10 to 100 nM | > 90% | 1 to 10 nM | C (C (10-100 fold)) | C#Cc1ccc(CNC(=O)[C@@H]2C[C@@H](O)CN2C(=O)C(c2cc(N3CCC(CN4CCC(N5CCC(N6CCN7c8cc(-c9ccccc9O)nnc8NC[C@H]7C6)CC5)CC4)CC3)no2)C(C)C)c(Cl)c1 (stereo partly shown) [I-325]
17 | > 90% | 50 to 100 nM | 70 to 90% | > 100 nM | 70 to 90% | 10 to 100 nM | C (C (10-100 fold)) | C#Cc1ccc([C@@H](C)NC(=O)[C@@H]2C[C@@H](O)CN2C(=O)C(c2cc(N3CCC(CN4CCC(N5CCC(N6CCN7c8cc(-c9ccccc9O)nnc8NC[C@H]7C6)CC5)CC4)CC3)no2)C(C)C)c(Cl)c1 (stereo partly shown) [I-327]
18 | > 90% | < 10 nM | > 90% | 1 to 10 nM | > 90% | < 1 nM | C (C (10-100 fold)) | C#Cc1ccc([C@H](C)NC(=O)[C@@H]2C[C@@H](O)CN2C(=O)C(c2cc(N3CC4(CC(N5CCC(N6CCC(N7CCN8c9cc(-c%10ccccc%10O)nnc9NC[C@H]8C7)CC6)CC5)C4)C3)no2)C(C)C)cc1 (stereo partly shown) [I-332]
19 | > 90% | 10 to 50 nM | 70 to 90% | > 100 nM | 70 to 90% | 1 to 10 nM | C (C (10-100 fold)) | C#Cc1ccc([C@H](C)NC(=O)[C@@H]2C[C@@H](O)CN2C(=O)[C@@H](NC(=O)[C@H]2CC3(C2)C[C@H](c2cnc(N4CCC(N5CCN6c7cc(-c8ccccc8O)nnc7NC[C@H]6C5)CC4)nc2)C3)C(C)(C)C)cc1 (stereo partly shown) [I-362]
20 |  | 10 to 50 nM |  | > 100 nM |  | 1 to 10 nM | C (C (10-100 fold)) | C#Cc1ccc([C@H](C)NC(=O)[C@@H]2C[C@@H](O)CN2C(=O)[C@@H](NC(=O)[C@H]2CC3(C2)C[C@H](c2cnc(N4CCC(N5CCN6c7cc(-c8ccccc8O)nnc7NC[C@H]6C5)CC4)nc2)C3)C(C)(C)C)cc1 (stereo partly shown) [I-363]
21 | > 90% | < 10 nM | 70 to 90% | > 100 nM | > 90% | 1 to 10 nM | C (C (10-100 fold)) | C#Cc1ccc([C@H](C)NC(=O)[C@@H]2C[C@@H](O)CN2C(=O)[C@@H](NC(=O)N2CC3(CC(N4CCN(c5cnc(N6CCc7[nH]c8nnc(-c9ccccc9O)cc8c7[C@H]6C)nc5)CC4)C3)C2)C(C)(C)CCO)cc1 [I-369]
